The nature of the data set: in vivo study of the concentration of acetaminophen in plasma and in interstitial fluid over time (FIG. 8). The text has this:
FIG. 8 illustrates an in vivo study of the concentration of acetaminophen in plasma and in interstitial fluid over time;
FIG. 8 further illustrates acetaminophen measured in concentration in vivo in plasma, at line 82, and in interstitial fluid, at line 84.

The structures appear in SMILES notation.

Regarding `CC(=O)Nc1ccc(O)cc1` [acetaminophen], the “measured acetaminophen concentration in interstitial fluid compared with plasma” value is on record as “less than that of plasma”. Moreover, the “time acetaminophen is present in interstitial fluid” value (interstitial fluid) was “over six”. Further, where the note is “plasma”, the “time acetaminophen is present in plasma” value is on record as “over six”.
